Values of other authors, collected in article PMC4233149 (Clinical cancer research : an official journal of the …, 2014).

Conditions: observed in the earlier QOD dose-escalation study; cited from earlier work

In the case of NC1(c2ccc(-c3nc4ccn5c(=O)[nH]nc5c4cc3-c3ccccc3)cc2)CCC1 [MK-2206], the half-life is given as 60 to 80 h.
